Test results reported in patent US20190038542A1, “MOISTURIZING PERSONAL CARE COMPOSITIONS COMPRISING MONODISPERSE PHYTOGLYCOGEN NANOPARTICLES AND A FURTHER POLYSACCHARIDE” (MIREXUS BIOTECHNOLOGIES INC., priority 2016, published 2019).

Assay: Photostability of phytoglycogen-ethyl-4-aminocinnamate conjugate versus aminocinnamate
Assay type: physicochemical
Conditions: after 4 h of exposure to UV-irradiation, thin film
Procedure: Aminocinnamate and a phytoglycogen-ethyl-4-aminocinnamate conjugate were dissolved in ethanol or in water, respectively.
Solutions were deposited as thin films onto a quartz plate and dried in air for 30 min. After drying, the samples were irradiated with UV light, as in Example 11, for 4 h and then tested for their photostability.
Photodegradation was calculated from the decrease in the maximum absorption of the respective products.

SMILES: CCOC(=O)C=Cc1ccc(N)cc1 [aminocinnamate, ethyl 4-aminocinnamate]
- activity retained: 40%
